Assay results: patent US4916219A, “Oligosaccharide heparin fragments as inhibitors of complement cascade” (University of Iowa Research Foundation, priority 1988, dated 1990)

How the values were obtained:
factor Xa = test: Antithrombin III mediated anti-factor Xa activity, purified plasma proteins; format: biochemical; conditions: standard curve using heparin (Mr avg 14,000), 167 units/mg
Procedure: (§1) This example illustrates the anticoagulant activity of each heparin and heparin-oligosaccharide fragment. Anticoagulant activity was determined by aPTT (activated thromboplastin time) (Linhardt et al., J. Biol. Chem. 257: 7310-13, 1982). Antithrombin III-mediated anti-factor IIa and antifactor Xa activity was measured using purified plasma proteins as described in Linhardt et al. and in Table 2. […] Two bovine heparins had 106% and 124% of standard porcine heparin's activity and the low molecular weight heparin had 100% of standard porcine heparin's activity on complement activation.

[1] = test system: T1, factor IIa (Homo sapiens); test: Antithrombin III mediated anti-factor IIa activity, purified plasma proteins; format: biochemical; conditions: standard curve using heparin (Mr avg 14,000), 167 units/mg
T1 construct: anti-factor IIa; from tissue
Procedure: as §1
(§2) The anticoagulant activity of heparin-oligosaccharides and commercial heparins measured by antifactor IIa assays are plotted against their ability to inhibit complement activation in FIG. 5. The porcine heparins, bovine heparins, and low molecular heparins cluster, showing only minor differences in activities.

[2] = test system: aPTT (activated thromboplastin time); test: Anticoagulant activity by aPTT; format: biochemical; conditions: standard curve using heparin (Mr avg 14,000), 167 units/mg
Procedure: as §1, §2

[3] = biological target: T2, alternative-amplification pathway C3 convertase on EAC4b,3b (Homo sapiens, UniProt P00751+P01024); test: Inhibition of generation of alternative-amplification pathway C3 convertase (lysis of EAC4b,3b); format: biochemical, sheep erythrocyte
T2 construct: C3bBb(P) formation read by lysis with rat serum-EDTA
Procedure: This example illustrates the activity of heparin and heparin-oligosaccharides to inhibit generation of the alternative-amplification pathway C3 convertase. The method described in Weiler et al., J. Exp. Med. 147: 409-421, 1978; Weiler, Immunopharmacology 6: 245-255, 1983; and Sharath et al., Immunopharmacology 9: 73-83, 1985, was used. Briefly, inhibition was examined in experiments that used EAC4b,3b which were prepared to have high, intermediate, and low amounts of C3 on the cell surface. EAC4b,3b^100, EAC4b,3b^20, and EAC4b,3b^5 were produced using a C3 input of 100 μg, 20 μg, and 5 μg per 10^9 EAC4b,2a cellular intermediates, respectively. Complement assay buffer (DGVB^++) 100 μL, alone was added to tubes used for the reagent blank, no inhibition, and 100% lysis; or complement assay buffer containing a heparin or heparin-oligosaccharide solution was added to the remaining tubes. At time zero, 100 μl of complement assay buffer containing a suspension of 1×10^7 EAC4b,3b, an excess amount of P and D (100 ng P), and an amount of B needed to lyse the noninhibited tubes at an average of 1 hemolytic event per cell (0.03 ng B for EAC4b,3b^100, 0.15 ng B for EAC4b,3b^20, and 0.50 ng B for EAC4b,3b^5) was added to each tube. The tubes used for the reagent blank contained no B. The mixtures were incubated for 30 minutes at 30° C. with shaking. Then, 300 μL of a 1:20 dilution of rat serum in 40 mM EDTA was added to each tube and incubation was continued with shaking for 60 minutes at 37° C. Saline (1.5 mL) was then added to each tube, except the 100% tube which was lysed with 1.5 mL of water in place of the saline. Finally, the contents of the tubes were mixed, centrifuged and the absorbance of the supernatant was measured at 414 nm.
The percent lysis, the average number of hemolytic sites per cell (Z), and the percent inhibition were then calculated. Data are expressed as either percent inhibition or as 100 times the ED50 (the amount of heparin resulting in 50% inhibition) for heparin divided by the ED50 for heparin-oligosaccharide. Concentration of heparin and heparin-oligosaccharides are expressed as micrograms per 1×10^7 cellular intermediates. The volume of the reaction tubes during convertase generation varied between 0.2 mL and 0.3 mL; the number of cellular intermediates was held at 1×10^7 per tube. The amount of lysis (Z) seen in the nonhibited tube was relatively independent of the volume of buffer present in the tube during convertase generation. Similarly, the amount of inhibition of convertase generation was independent of the volume of buffer present in the tube during convertase generation.

T2 sequence (P01024 23-1663): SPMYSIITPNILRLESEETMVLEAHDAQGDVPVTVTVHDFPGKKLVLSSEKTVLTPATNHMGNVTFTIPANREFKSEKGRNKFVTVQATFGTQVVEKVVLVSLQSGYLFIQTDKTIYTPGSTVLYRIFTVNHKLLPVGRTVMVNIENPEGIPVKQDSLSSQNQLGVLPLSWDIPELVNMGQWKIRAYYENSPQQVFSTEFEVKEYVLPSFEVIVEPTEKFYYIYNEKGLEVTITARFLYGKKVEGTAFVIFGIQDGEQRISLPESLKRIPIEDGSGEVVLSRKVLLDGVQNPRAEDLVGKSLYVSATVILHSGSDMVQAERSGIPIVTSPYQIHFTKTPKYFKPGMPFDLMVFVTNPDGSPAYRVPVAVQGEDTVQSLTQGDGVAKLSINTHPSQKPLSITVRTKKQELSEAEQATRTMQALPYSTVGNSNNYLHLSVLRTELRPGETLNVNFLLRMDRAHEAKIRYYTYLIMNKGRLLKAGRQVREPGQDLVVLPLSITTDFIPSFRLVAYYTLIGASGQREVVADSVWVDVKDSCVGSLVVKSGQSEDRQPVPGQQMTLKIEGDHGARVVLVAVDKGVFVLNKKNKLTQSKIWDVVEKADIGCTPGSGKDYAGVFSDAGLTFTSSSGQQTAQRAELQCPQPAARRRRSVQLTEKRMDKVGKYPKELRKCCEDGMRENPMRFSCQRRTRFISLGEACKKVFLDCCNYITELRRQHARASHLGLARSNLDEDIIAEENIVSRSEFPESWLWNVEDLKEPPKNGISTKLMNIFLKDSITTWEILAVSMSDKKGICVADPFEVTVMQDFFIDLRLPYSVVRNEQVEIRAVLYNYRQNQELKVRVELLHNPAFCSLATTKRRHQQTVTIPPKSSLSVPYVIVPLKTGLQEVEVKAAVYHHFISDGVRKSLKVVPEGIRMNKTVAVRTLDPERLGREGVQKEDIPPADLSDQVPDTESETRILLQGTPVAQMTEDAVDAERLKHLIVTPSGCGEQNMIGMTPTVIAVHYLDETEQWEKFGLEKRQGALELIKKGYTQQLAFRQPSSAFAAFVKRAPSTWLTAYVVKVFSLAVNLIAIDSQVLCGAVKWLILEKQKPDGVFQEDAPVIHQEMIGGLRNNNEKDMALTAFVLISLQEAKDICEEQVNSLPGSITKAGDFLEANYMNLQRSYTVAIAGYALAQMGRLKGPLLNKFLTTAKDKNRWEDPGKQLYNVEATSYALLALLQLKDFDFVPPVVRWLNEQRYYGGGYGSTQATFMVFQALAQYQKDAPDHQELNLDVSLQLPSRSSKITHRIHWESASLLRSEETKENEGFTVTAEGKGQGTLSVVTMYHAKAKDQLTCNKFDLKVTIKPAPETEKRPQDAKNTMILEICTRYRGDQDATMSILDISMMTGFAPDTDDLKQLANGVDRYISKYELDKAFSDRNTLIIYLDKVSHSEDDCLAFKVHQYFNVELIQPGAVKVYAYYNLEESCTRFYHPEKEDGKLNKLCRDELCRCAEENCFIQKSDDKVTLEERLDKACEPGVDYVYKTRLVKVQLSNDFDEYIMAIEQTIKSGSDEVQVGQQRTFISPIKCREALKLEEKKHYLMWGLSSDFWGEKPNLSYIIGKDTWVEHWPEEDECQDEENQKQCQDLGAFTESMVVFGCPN
T2 sequence (P00751 26-764): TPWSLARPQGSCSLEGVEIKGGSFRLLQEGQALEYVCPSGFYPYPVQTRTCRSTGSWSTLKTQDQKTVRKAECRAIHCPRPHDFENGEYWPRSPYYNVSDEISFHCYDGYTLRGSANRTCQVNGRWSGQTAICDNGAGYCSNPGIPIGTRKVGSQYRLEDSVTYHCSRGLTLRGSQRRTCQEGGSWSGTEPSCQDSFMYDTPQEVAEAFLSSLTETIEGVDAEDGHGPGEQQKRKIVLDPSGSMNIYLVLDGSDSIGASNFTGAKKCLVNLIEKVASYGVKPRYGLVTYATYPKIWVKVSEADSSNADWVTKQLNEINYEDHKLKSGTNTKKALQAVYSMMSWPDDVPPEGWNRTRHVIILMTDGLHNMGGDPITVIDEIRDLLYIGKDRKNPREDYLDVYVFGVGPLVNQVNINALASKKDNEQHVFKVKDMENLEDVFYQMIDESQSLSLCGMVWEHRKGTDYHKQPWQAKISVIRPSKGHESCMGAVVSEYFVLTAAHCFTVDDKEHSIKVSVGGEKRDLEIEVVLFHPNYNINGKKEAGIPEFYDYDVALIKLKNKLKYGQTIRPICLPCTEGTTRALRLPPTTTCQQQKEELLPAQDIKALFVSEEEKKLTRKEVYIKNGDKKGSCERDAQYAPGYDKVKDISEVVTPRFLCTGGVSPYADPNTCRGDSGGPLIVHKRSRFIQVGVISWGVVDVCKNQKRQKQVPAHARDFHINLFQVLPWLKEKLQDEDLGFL
T2 sequence (P27918 28-469 partner): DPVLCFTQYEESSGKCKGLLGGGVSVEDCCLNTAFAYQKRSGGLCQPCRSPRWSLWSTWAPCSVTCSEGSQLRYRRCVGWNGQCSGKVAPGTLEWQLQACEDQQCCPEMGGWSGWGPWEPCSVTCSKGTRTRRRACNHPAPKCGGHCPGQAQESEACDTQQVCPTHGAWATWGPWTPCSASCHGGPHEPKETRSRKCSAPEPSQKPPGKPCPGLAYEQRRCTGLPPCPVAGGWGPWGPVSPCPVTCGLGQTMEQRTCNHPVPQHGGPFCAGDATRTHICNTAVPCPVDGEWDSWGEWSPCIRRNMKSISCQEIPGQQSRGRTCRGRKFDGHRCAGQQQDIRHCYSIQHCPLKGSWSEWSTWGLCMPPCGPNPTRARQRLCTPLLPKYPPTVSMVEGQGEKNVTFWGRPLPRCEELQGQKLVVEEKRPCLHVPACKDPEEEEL
T2 sequence (P00746 26-253 partner): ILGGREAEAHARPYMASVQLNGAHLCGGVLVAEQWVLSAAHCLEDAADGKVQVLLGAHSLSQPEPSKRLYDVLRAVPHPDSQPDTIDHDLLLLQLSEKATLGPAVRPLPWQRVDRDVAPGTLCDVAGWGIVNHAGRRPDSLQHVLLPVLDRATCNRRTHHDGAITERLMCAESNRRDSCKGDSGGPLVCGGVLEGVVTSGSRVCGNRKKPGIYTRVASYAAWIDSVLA
T1 sequence (P01008 33-464): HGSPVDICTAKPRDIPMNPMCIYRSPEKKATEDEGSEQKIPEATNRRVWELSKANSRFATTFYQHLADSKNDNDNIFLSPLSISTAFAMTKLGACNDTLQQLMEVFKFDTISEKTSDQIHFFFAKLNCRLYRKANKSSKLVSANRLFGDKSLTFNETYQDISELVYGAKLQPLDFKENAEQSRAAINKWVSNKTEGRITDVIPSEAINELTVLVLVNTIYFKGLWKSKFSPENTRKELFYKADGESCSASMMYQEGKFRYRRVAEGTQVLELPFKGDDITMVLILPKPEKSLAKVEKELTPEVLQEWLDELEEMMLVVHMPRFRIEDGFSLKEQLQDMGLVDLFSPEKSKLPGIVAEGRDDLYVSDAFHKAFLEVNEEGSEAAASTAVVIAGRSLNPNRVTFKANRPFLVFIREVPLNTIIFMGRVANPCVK

| Anticoagulant ACTIVITY Antithrombin III mediated Anti-factor IIa [1] | Complement activation inhibitory activity [3] | SMILES | Anticoagulant ACTIVITY Antithrombin III mediated Anti-factor Xa (factor Xa) | Anticoagulant ACTIVITY aPTT [2] |
| --- | --- | --- | --- | --- |
| < 1 units/μmole | low activity | O=C(O)C1=C[C@H](O)[C@@H](OS(=O)(=O)O)[C@H](O[C@H]2[C@H](O)[C@@H](NS(=O)(=O)O)[C@@H](O[C@H]3[C@H](O)[C@@H](OS(=O)(=O)O)[C@H](O[C@H]4[C@H](O)[C@@H](NS(=O)(=O)O)C(O)O[C@@H]4COS(=O)(=O)O)O[C@H]3C(=O)O)O[C@@H]2CO)O1 (stereo partly drawn) [4A, ΔUAp2S(1→4)-α-D-GlcNp2S(1→4)-α-L-IdoAp2S-α-D-GlcNp2S6S] | < 0.1 units/μmole | 2 units/μmole |
| 11 units/μmole | low activity | CC(=O)NC1C(OC2C(C(=O)O)OC(OC3C(COS(=O)(=O)O)OC(O)C(NS(=O)(=O)O)C3OS(=O)(=O)O)C(O)C2O)OC(COS(=O)(=O)O)C(OC2OC(C(=O)O)C(OC3OC(COS(=O)(=O)O)C(OC4OC(C(=O)O)=CC(O)C4OS(=O)(=O)O)C(O)C3NS(=O)(=O)O)C(O)C2O)C1O [6C, ΔUAp2S(1→4)-α-D-GlcNp2S6S(1→4)-α-L-IdoAp(1→4)-α-D-GlcNAcp6S-(1→4)-β-D-GlcAp( 1→4)-α-D-GlcNp2S3S6S] | 26 units/μmole | 26 units/μmole |
| < 3 units/μmole |  | O=C(O)C1=CC(O)C(OS(=O)(=O)O)C(OC2C(COS(=O)(=O)O)OC(OC3C(C(=O)O)OC(OC4C(COS(=O)(=O)O)OC(OC5C(C(=O)O)OC(OC6C(COS(=O)(=O)O)OC(OC7C(C(=O)O)OC(OC8C(COS(=O)(=O)O)OC(O)C(NS(=O)(=O)O)C8O)C(OS(=O)(=O)O)C7O)C(NS(=O)(=O)O)C6O)C(OS(=O)(=O)O)C5O)C(NS(=O)(=O)O)C4O)C(OS(=O)(=O)O)C3O)C(NS(=O)(=O)O)C2O)O1 (centres unmarked) [8D] | 32 units/μmole | 22 units/μmole |
| < 2 units/μmole | low activity | O=C(O)C1=C[C@H](O)[C@@H](OS(=O)(=O)O)[C@H](O[C@H]2[C@H](O)[C@@H](NS(=O)(=O)O)[C@@H](O[C@H]3[C@H](O)[C@@H](OS(=O)(=O)O)[C@H](O[C@H]4[C@H](O)[C@@H](NS(=O)(=O)O)C(O)O[C@@H]4COS(=O)(=O)O)O[C@H]3C(=O)O)O[C@@H]2COS(=O)(=O)O)O1 (stereo partly drawn) [4C, ΔUAp2S(1→4)-α-D-GlcNp2S6S(1→4)-α-L-IdoAp2S(1→4)-α-D-GlcNp2S6S] | 3 units/μmole | 2 units/μmole |
| < 1 units/μmole | low activity | O=C(O)C1=C[C@H](O)[C@@H](OS(=O)(=O)O)[C@H](O[C@H]2[C@H](O)[C@@H](NS(=O)(=O)O)C(O)O[C@@H]2COS(=O)(=O)O)O1 (stereo partly drawn) [compound 2, ΔUAp2S(1→4)-α-D-GlcNp2S6S] | < 0.1 units/μmole | < 1 units/μmole |
| < 2 units/μmole | low activity | O=C(O)C1=C[C@H](O)[C@@H](OS(=O)(=O)O)[C@H](O[C@H]2[C@H](O)[C@@H](NS(=O)(=O)O)[C@@H](O[C@H]3[C@H](O)[C@@H](O)[C@H](O[C@H]4[C@H](O)[C@@H](NS(=O)(=O)O)C(O)O[C@@H]4COS(=O)(=O)O)O[C@@H]3C(=O)O)O[C@@H]2COS(=O)(=O)O)O1 (stereo partly drawn) [4B, ΔUAp2S(1→4)-α-D-GlcNp2S6S(1→4)-β-D-GlcAp(1→4)-α-D-GlcNp2S6S] | 0.1 units/μmole | 2 units/μmole |
| < 3 units/μmole |  | O=C(O)C1=CC(O)C(OS(=O)(=O)O)C(OC2C(COS(=O)(=O)O)OC(OC3C(C(=O)O)OC(OC4C(COS(=O)(=O)O)OC(OC5C(C(=O)O)OC(OC6C(COS(=O)(=O)O)OC(OC7C(C(=O)O)OC(OC8C(COS(=O)(=O)O)OC(OC9C(C(=O)O)OC(OC%10C(COS(=O)(=O)O)OC(O)C(NS(=O)(=O)O)C%10O)C(OS(=O)(=O)O)C9O)C(NS(=O)(=O)O)C8O)C(OS(=O)(=O)O)C7O)C(NS(=O)(=O)O)C6O)C(OS(=O)(=O)O)C5O)C(NS(=O)(=O)O)C4O)C(OS(=O)(=O)O)C3O)C(NS(=O)(=O)O)C2O)O1 (centres unmarked) [10D] | 136 units/μmole | 54 units/μmole |
| < 2 units/μmole |  | O=C(O)C1=CC(O)C(OS(=O)(=O)O)C(OC2C(COS(=O)(=O)O)OC(OC3C(C(=O)O)OC(OC4C(COS(=O)(=O)O)OC(OC5C(C(=O)O)OC(OC6C(COS(=O)(=O)O)OC(O)C(NS(=O)(=O)O)C6O)C(OS(=O)(=O)O)C5O)C(NS(=O)(=O)O)C4O)C(OS(=O)(=O)O)C3O)C(NS(=O)(=O)O)C2O)O1 (centres unmarked) [6D] | 4 units/μmole | 11 units/μmole |
